# Earlier results as cited in EP1935424A1, “PHARMACEUTICAL COMPOSITIONS COMPRISING COMBINED ANTIDIABETIC SUBSTANCES FOR USE IN DIABETES MELLITUS” (ESPINOZA ABDALA, Leopoldo de Jesús, priority 2005, dated 2007).
# Like-named read-outs stand apart in the source and are kept apart here.
# Key:
# [1] = for absorption: oral / gastrointestinal tract, in words; for metabolized by: enzymes named; for tmax (plasma peak following administration) / bioavailability: oral; for half-life (clearance half-life in plasma): parent compound; for eliminated by renal route without being metabolized: share of the administered dose as non-metabolized drug
# [2] = route of clearance, table Sulfonylureas: Pharmacokinetc Properties
# [3] = table Sulfonylureas: Pharmacokinetc Properties, unit not given
Compound,"Clearance [1, 2]","Action duration [1, 3]",metabolized by [1],tmax (plasma peak following administration) [1],half-life (clearance half-life in plasma) [1],binds to plasma proteins (plasma proteins),further results
CCC1=C(C)CN(C(=O)NCCc2ccc(S(=O)(=O)NC(=O)N[C@H]3CC[C@H](C)CC3)cc2)C1=O [Glimepiride],Hepatic and renal,24,,,,,
COc1ccc(Cl)cc1C(=O)NCCc1ccc(S(=O)(=O)NC(=O)NC2CCCCC2)cc1 [Glibenclamide],,,,,,,Action duration ([1]; in vivo): 12-16; Clearance ([1]; in vivo): Hepatic
C[C@H]1O[C@H](O[C@H]2[C@H](O)[C@@H](O)[C@@H](O[C@H]3[C@H](O)[C@@H](O)C(O)O[C@@H]3CO)O[C@@H]2CO)[C@H](O)[C@@H](O)[C@@H]1N[C@H]1C=C(CO)[C@@H](O)[C@H](O)[C@H]1O (some centres unmarked) [Acarbose],,,,,,,"absorbed orally ([1]; in vivo, po): < 2%; absorption [1]: poorly absorbed orally"
Cc1ccc(S(=O)(=O)NC(=O)NN2CC3CCCC3C2)cc1 (centres unmarked) [Glicazide],Hepatic,12-13,,,,,
CCOc1cc(CC(=O)N[C@@H](CC(C)C)c2ccccc2N2CCCCC2)ccc1C(=O)O [Repaglinide],,,cytochrome P450 and by glucuronidases,1 h,about 1 hours,more than 98%,"eliminated, time following administration ([1]; in vivo): 4 to 6 h; absorption [1]: rapidly absorbed; insulinotropic response to a meal occurs after taking an oral dose ([1]; patients with type 2 diabetes, oral dose): ≤ 30 min"
CN(C)C(=N)N=C(N)N [Metformin],,,,,,,absorption is completed in ([1]; gastrointestinal tract): about 6 hours; excreted by renal route ([1]; of an oral dose in 12 hours): 90%
CN(CCOc1ccc(CC2SC(=O)NC2=O)cc1)c1ccccn1 (centres unmarked) [Rosiglitazone],,,cytochrome P450 isoenzymes 2C8 and 2C9,1 h,3 to 4 h,99.8%,eliminated in feces ([1]; in vivo): 23%; eliminated in urine ([1]; in vivo): 64%; bioavailability [1]: 99%
COc1ccc2c(c1)C(=O)N(CCc1ccc(S(=O)(=O)NC(=O)NC3CCCCC3)cc1)C(=O)C2(C)C [Gliquidone],Hepatic,2-4,,,,,
CC(C)[C@H]1CC[C@H](C(=O)N[C@H](Cc2ccccc2)C(=O)O)CC1 [Nateglinide],,,CYP3A4 and CYP2C9,1 h,about 1.5 hours,97%,bioavailability [1]: greater than 70%; absorption [1]: rapidly absorbed; eliminated by renal route without being metabolized [1]: About 16%
CCc1ccc(CCOc2ccc(CC3SC(=O)NC3=O)cc2)nc1 (centres unmarked) [Pioglitazone],,,CYP3A4 and CYP2C9,2 h,5 to 6 h,more than 99%,bioavailability [1]: ~80%; clearance half-life for the metabolites ([1]; three active metabolites): 16 to 24 h
Cc1cnc(C(=O)NCCc2ccc(S(=O)(=O)NC(=O)NC3CCCCC3)cc2)cn1 [Glipizide],,5-10,,,,,
CCCNC(=O)NS(=O)(=O)c1ccc(Cl)cc1 [Chlorpropamide],Hepatic and renal,24-72,,,24 to 48 h,,eliminated by renal route without being metabolized [1]: about 20%
